In patent publication US20180282281A1, “IMMUNOREGULATORY AGENTS” (FLEXUS BIOSCIENCES, INC., priority 2014, published 2018) one finds IC50 data, which are given here for 30 compounds.

The structures appear in SMILES notation.

T1 sequence (P14902 whole entry): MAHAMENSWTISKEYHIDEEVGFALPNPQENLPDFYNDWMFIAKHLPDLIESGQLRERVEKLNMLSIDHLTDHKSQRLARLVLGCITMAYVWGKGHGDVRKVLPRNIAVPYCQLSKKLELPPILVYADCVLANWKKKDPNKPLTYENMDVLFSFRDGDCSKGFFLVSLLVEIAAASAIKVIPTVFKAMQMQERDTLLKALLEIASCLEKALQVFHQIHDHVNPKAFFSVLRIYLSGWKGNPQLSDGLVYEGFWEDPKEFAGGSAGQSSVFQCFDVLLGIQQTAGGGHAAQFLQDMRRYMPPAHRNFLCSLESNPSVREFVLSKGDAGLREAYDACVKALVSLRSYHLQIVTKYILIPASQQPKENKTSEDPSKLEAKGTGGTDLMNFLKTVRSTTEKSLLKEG

This experiment addresses T1, human IDO1 (Homo sapiens, UniProt P14902).
T1 construct: expressed in transfected cells
The experiment in a line: HEK293 human IDO1 cell-based IDO inhibition assay. The conditions noted are these: read-out: HEK Human IDO-1 Potency. The protocol:
1HEK293 cells were transfected with a pCDNA-based mammalian expression vector harboring human IDO1 cDNA (NM 002164.2) by electroporation. They were cultured in medium (DMEM with 10% FBS) containing 1 mg/ml G418 for two weeks. Clones of HEK293 cells that stably expressed human IDO1 protein were selected and expanded for IDO inhibition assay.
The human IDOL/HEK293 cells were seeded at 10,000 cells per 50 μL per well with RPMI/phenol red free media contains 10% FBS in a 384-well black wall clear bottom tissue culture plate (Matrix Technologies LLC) 100 nL of certain concentration of compound was then added to each well using ECHO liquid handling systems. The cells were incubated for 20 hours in 37° C. incubator with 5% CO2.
The compound treatments were stopped by adding Trichloroacetic Acid (Sigma-Aldrich) to a final concentration at 0.2%. The cell plate was further incubated at 50° C. for 30 minute. The equal volume supernatant (20 μL) and 0.2% (w/v) Ehrlich reagent (4-dimethylaminobenzaldehyde, Sigma-Aldrich) in glacial acetic acid were mixed in a new clear bottom 384-well plate. This plate was then incubated at room temperature for 30 minute. The absorbance at 490 nm was measured on Envision plate reader.
As to `CCC(C(=O)Nc1ccc(Cl)cc1)[C@H]1CC[C@@H](Oc2ccnc3ccc(C(F)(F)F)cc23)CC1` (single isomer, unassigned) [Example 89b, N-(4-Chlorophenyl)-2-((cis)-4-((6-(trifluoromethyl)quinolin-4-yl)oxy)cyclohexyl)butanamide], the IC50 was greater than 250 nM.
In the case of `CC(C(=O)Nc1ccc(Cl)cc1)N1CCC(Oc2ccc3nccc(Cl)c3c2)CC1` (single isomer, unassigned) [Example 93], the IC50 was less than 50 nM.
The same measure for `CC(C(=O)Nc1ccc(Cl)cc1)N1CCC(Oc2ccc3nccc(Cl)c3c2)CC1` (single isomer, unassigned) [Example 94]: less than 250 nM.
The same measure for `CC(C(=O)Nc1ccc(Cl)cc1)N1CCN(c2ccnc3ccc(F)cc23)CC1` (single isomer, unassigned) [Example 129, N-(4-Chlorophenyl)-2-(4-(6-fluoroquinolin-4-yl)piperazin-1-yl)propanamide]: less than 250 nM; for `CC(C(=O)Nc1ccc(Cl)cc1)N1CCN(c2ccnc3ccc(F)cc23)CC1` (single isomer, unassigned) [Example 130, N-(4-Chlorophenyl)-2-(4-(6-fluoroquinolin-4-yl)piperazin-1-yl)propanamide]: greater than 250 nM.
For the compound `COCC(C(=O)Nc1ccc(Cl)cc1)N1CCN(c2ccnc3ccc(F)cc23)CC1` (single isomer, unassigned) [Example 135, N-(4-chlorophenyl)-2-(4-(6-fluoroquinolin-4-yl)piperazin-1-yl)-3-methoxypropanamide], the IC50 is greater than 250 nM.
Regarding `CC(C(=O)O)c1ccc(C[C@@H](C(=O)Nc2ccc(Cl)cc2)[C@H]2CC[C@@H](c3ccnc4ccc(F)cc43)CC2)cc1` (single isomer, unassigned) [Example 138], the IC50 was less than 50 nM.
Regarding `C[C@H](C(=O)Nc1ccc(Cl)cc1)[C@H]1CC[C@@H](c2ccnc3ccnn32)CC1` (single isomer, unassigned) [Example 144a], the IC50 was less than 50 nM.
Take `C[C@@H](C(=O)Nc1ccc(Cl)cc1)[C@H]1CC[C@@H](c2ccnc3ccnn32)CC1` (single isomer, unassigned) [Example 144b]: the IC50 is greater than 250 nM.
As for `C[C@H](C(=O)Nc1ccc(Cl)cc1)[C@H]1CC[C@H](c2ccnc3ccnn32)CC1` (single isomer, unassigned) [Example 144c], the IC50 is less than 250 nM.
In the case of `C[C@@H](C(=O)Nc1ccc(Cl)cc1)[C@H]1CC[C@H](c2ccnc3ccnn32)CC1` (single isomer, unassigned) [Example 144d], the IC50 is greater than 250 nM.
With `C[C@H](C(=O)Nc1ccc(Cl)cc1)[C@H]1CC[C@@H](c2ccnc3ncccc32)CC1` (single isomer, unassigned) [Example 148a], the IC50 is greater than 250 nM.
As to `C[C@@H](C(=O)Nc1ccc(Cl)cc1)[C@H]1CC[C@@H](c2ccnc3ncccc32)CC1` (single isomer, unassigned) [Example 148b], the IC50 was less than 50 nM.
On to `C[C@H](C(=O)Nc1ccc(Cl)cc1)[C@H]1CC[C@H](c2ccnc3ncccc32)CC1` (single isomer, unassigned) [Example 148c], for which the IC50 was less than 50 nM.
In the case of `C[C@@H](C(=O)Nc1ccc(Cl)cc1)[C@H]1CC[C@H](c2ccnc3ncccc32)CC1` (single isomer, unassigned) [Example 148d], the IC50 was less than 250 nM.
In the case of `C[C@H](C(=O)Nc1ccc(Cl)cc1)[C@H]1CC[C@@H](c2ccnc3cn[nH]c32)CC1` (single isomer, unassigned) [Example 150a], the IC50 is less than 50 nM.
The same measure for `C[C@@H](C(=O)Nc1ccc(Cl)cc1)[C@H]1CC[C@@H](c2ccnc3cn[nH]c32)CC1` (single isomer, unassigned) [Example 150b]: greater than 250 nM; for `C[C@H](C(=O)Nc1ccc(Cl)cc1)[C@H]1CC[C@H](c2ccnc3cn[nH]c32)CC1` (single isomer, unassigned) [Example 150c]: greater than 250 nM.
In the case of `C[C@@H](C(=O)Nc1ccc(Cl)cc1)[C@H]1CC[C@H](c2ccnc3cn[nH]c32)CC1` (single isomer, unassigned) [Example 150d], the IC50 is less than 50 nM.
For the compound `C[C@H](C(=O)Nc1ccc(Cl)cc1)[C@H]1CC[C@@H](c2ccnc3ccc(I)cc32)CC1` (single isomer, unassigned) [Example 152a], the IC50 was less than 50 nM.
For the compound `C[C@@H](C(=O)Nc1ccc(Cl)cc1)[C@H]1CC[C@@H](c2ccnc3ccc(I)cc32)CC1` (single isomer, unassigned) [Example 152b], the IC50 is less than 50 nM.
As to `C[C@H](C(=O)Nc1ccc(Cl)cc1)[C@H]1CC[C@H](c2ccnc3ccc(I)cc32)CC1` (single isomer, unassigned) [Example 152c], the IC50 is less than 250 nM.
Regarding `C[C@@H](C(=O)Nc1ccc(Cl)cc1)[C@H]1CC[C@H](c2ccnc3ccc(I)cc32)CC1` (single isomer, unassigned) [Example 152d], the IC50 is less than 50 nM.
The same measure for `CCCC(C(=O)Nc1ccc(Cl)cc1)N1CCN(c2ccnc3ccc(F)cc23)CC1` (single isomer, unassigned) [Example 245, N-(4-Chlorophenyl)-2-(4-(6-fluoroquinolin-4-yl)piperazin-1-yl)pentanamide]: less than 250 nM; for `CCCC(C(=O)Nc1ccc(Cl)cc1)N1CCN(c2ccnc3ccc(F)cc23)CC1` (single isomer, unassigned) [Example 246, N-(4-Chlorophenyl)-2-(4-(6-fluoroquinolin-4-yl)piperazin-1-yl)pentanamide]: greater than 250 nM; for `CCCC(C(=O)NC1(C)CCCCC1)N1CCN(c2ccnc3ccc(F)cc23)CC1` (single isomer, unassigned) [Example 248, 2-(4-(6-Fluoroquinolin-4-yl)piperazin-1-yl)-N-(1-methylcyclohexyl)pentanamide]: greater than 250 nM.
The same measure for `CCCC(C(=O)NC1(C)CCCCC1)N1CCN(c2ccnc3ccc(F)cc23)CC1` (single isomer, unassigned) [Example 249, 2-(4-(6-Fluoroquinolin-4-yl)piperazin-1-yl)-N-(1-methylcyclohexyl)pentanamide]: less than 50 nM.
Consider `C[C@@H](C(=O)Nc1ccc(Cl)cc1)[C@H]1CC[C@@H](c2ccnc3c2ncn3C)CC1` (single isomer, unassigned) [Example 251a, N-(4-chlorophenyl)-2-(4-(3-methyl-3H-imidazo[4,5-b]pyridin-7-yl)cyclohexyl)propanamide], for which the IC50 is less than 50 nM.
Take `C[C@@H](C(=O)Nc1ccc(Cl)cc1)[C@H]1CC[C@@H](c2ccnc3c2ncn3C)CC1` (single isomer, unassigned) [Example 251b, N-(4-chlorophenyl)-2-(4-(3-methyl-3H-imidazo[4,5-b]pyridin-7-yl)cyclohexyl)propanamide]: the IC50 is greater than 250 nM.
On to `C[C@@H](C(=O)Nc1ccc(Cl)cc1)[C@H]1CC[C@@H](c2ccnc3c2ncn3C)CC1` (single isomer, unassigned) [Example 251c, N-(4-chlorophenyl)-2-(4-(3-methyl-3H-imidazo[4,5-b]pyridin-7-yl)cyclohexyl)propanamide], for which the IC50 is less than 50 nM.
